Experimental data reported in patent US20250223259A1, “PROTEASE INHIBITORS FOR TREATING OR PREVENTING CORONAVIRUS INFECTION” (Merck Sharp & Dohme LLC, priority 2022, published 2025).

Biological target: SARS2 coronavirus 3CL protease (Severe acute respiratory syndrome coronavirus 2 (2019-nCoV) (SARS-CoV-2), UniProt P0DTD1)
Test: SARS2 Coronavirus 3CL Protease Assay (FRET)
Assay type: biochemical
Conditions: SARS2 3CLPro FRET assay; 5 nM enzyme, 30 min pre-incubation with compound, 15 uM peptide substrate, 4 h room temperature

SMILES	IC50
COC(=O)N[C@H](C(=O)N1C[C@@H]2CC(C)(C)[C@@H]2[C@H]1C(=O)N[C@@H](CCC(C)(F)F)C(=O)C(=O)NC1CC1)C(C)(C)C [Example 25, Methyl ((S)-1-((1R,2S,5R)-2-(((S)-1-(cyclopropylamino)-6,6-difluoro-1,2-dioxoheptan-3-yl)carbamoyl)-7,7-dimethyl-3-azabicyclo[3.2.0]heptan-3-yl)-3,3-dimethyl-1-oxobutan-2-yl)carbamate]	8.7 nM
COC(=O)N[C@H](C(=O)N1C[C@H](OC(F)(F)F)C(C)(C)[C@H]1C(=O)N[C@@H](CCC(C)(F)F)C(=O)C(=O)NC1CC1)C(C)(C)C [Example 48, Methyl ((S)-1-((2S,4R)-2-(((S)-1-(cyclopropylamino)-6,6-difluoro-1,2-dioxoheptan-3-yl)carbamoyl)-3,3-dimethyl-4-(trifluoromethoxy)pyrrolidin-1-yl)-3,3-dimethyl-1-oxobutan-2-yl)carbamate]	45 nM
COC(=O)N[C@H](C(=O)N1CC(C2CCCC2)C[C@H]1C(=O)N[C@@H](CCC(C)(F)F)C(=O)C(=O)NC1CC1)C(C)(C)C (single isomer, unassigned) [Example 3, Methyl ((S)-1-((2S,4(R or S))-4-cyclopentyl-2-(((S)-1-(cyclopropylamino)-6,6-difluoro-1,2-dioxoheptan-3-yl)carbamoyl)pyrrolidin-1-yl)-3,3-dimethyl-1-oxobutan-2-yl)carbamate]	58 nM
COC(=O)N[C@H](C(=O)N1CC[C@@H](C(F)(F)F)C[C@H]1C(=O)N[C@@H](CCC(C)(F)F)C(=O)C(=O)NC1CC1)c1ccccc1 [Example 65, Methyl ((S)-2-((2S,4R)-2-(((S)-1-(cyclopropylamino)-6,6-difluoro-1,2-dioxoheptan-3-yl)carbamoyl)-4-(trifluoromethyl)piperidin-1-yl)-2-oxo-1-phenylethyl)carbamate]	24 nM
COC(=O)N[C@H](C(=O)N1CC2(CCCCC2)C[C@H]1C(=O)N[C@@H](CCC(C)(F)F)C(=O)C(=O)NCC(C)C)C(C)(C)C [Example 9, Methyl ((S)-1-((S)-3-(((S)-6,6-difluoro-1-(isobutylamino)-1,2-dioxoheptan-3-yl)carbamoyl)-2-azaspiro[4.5]decan-2-yl)-3,3-dimethyl-1-oxobutan-2-yl)carbamate]	21 nM
CNC(=O)C(=O)[C@H](CCC(C)(F)F)NC(=O)[C@@H]1[C@H]2CCC[C@H]2CN1C(=O)[C@@H](NC(=O)OC)C(C)(C)O [Example 117, methyl ((S)-1-((1S,3aR,6aS)-1-(((S)-6,6-difluoro-1-(methylamino)-1,2-dioxoheptan-3-yl)carbamoyl)hexahydrocyclopenta[c]pyrrol-2(1H)-yl)-3-hydroxy-3-methyl-1-oxobutan-2-yl)carbamate]	14 nM
COC(=O)N[C@H](C(=O)N1CCC(C)(C)C1C(=O)N[C@@H](CCC(C)(F)F)C(=O)C(=O)NC1CC1)C(C)(C)C (single isomer, unassigned) [Example 73, Methyl ((S)-1-((R or S)-2-(((S)-1-(cyclopropylamino)-6,6-difluoro-1,2-dioxoheptan-3-yl)carbamoyl)-3,3-dimethylpyrrolidin-1-yl)-3,3-dimethyl-1-oxobutan-2-yl)carbamate]	60 nM
CNC(=O)C(=O)[C@H](CCC(C)(F)F)NC(=O)C1CC(C)(F)CCN1C(=O)[C@@H](NC(=O)OC)C(C)(C)C (single isomer, unassigned) [Example 97, methyl ((S)-1-((2S,4S or 2R,4R)-2-(((S)-6,6-difluoro-1-(methylamino)-1,2-dioxoheptan-3-yl)carbamoyl)-4-fluoro-4-methylpiperidin-1-yl)-3,3-dimethyl-1-oxobutan-2-yl)carbamate]	19 nM
COC(=O)N[C@H](C(=O)N1CC2(CCCCC2)C[C@H]1C(=O)N[C@@H](CCC(C)(F)F)C(=O)C(=O)NCc1ccccc1)C(C)(C)C [Example 7, Methyl ((S)-1-((S)-3-(((S)-1-(benzylamino)-6,6-difluoro-1,2-dioxoheptan-3-yl)carbamoyl)-2-azaspiro[4.5]decan-2-yl)-3,3-dimethyl-1-oxobutan-2-yl)carbamate]	11 nM
COC(=O)N[C@H](C(=O)N1CC2(CCCC2)C[C@H]1C(=O)N[C@@H](CCC(C)(F)F)C(=O)C(=O)NC1CC1)C(C)(C)C [Example 10, Methyl ((S)-1-((S)-3-(((S)-1-(cyclopropylamino)-6,6-difluoro-1,2-dioxoheptan-3-yl)carbamoyl)-2-azaspiro[4.4]nonan-2-yl)-3,3-dimethyl-1-oxobutan-2-yl)carbamate]	26 nM
COC(=O)N[C@H](C(=O)N1C[C@H]2[C@@H]([C@H]1C(=O)N[C@@H](CCC(C)(F)F)C(=O)C(=O)NC1CC1)C2(C)C)C(C)(C)C [Example 6, Methyl ((S)-1-((1R,2S,5S)-2-(((S)-1-(cyclopropylamino)-6,6-difluoro-1,2-dioxoheptan-3-yl)carbamoyl)-6,6-dimethyl-3-azabicyclo[3.1.0]hexan-3-yl)-3,3-dimethyl-1-oxobutan-2-yl)carbamate]	17 nM
COC(=O)N[C@H](C(=O)N1CC2(CCCCC2)C[C@H]1C(=O)N[C@@H](CCC(C)(F)F)C(=O)C(=O)NC(C)C)C(C)(C)C [Example 13, Methyl ((S)-1-((S)-3-(((S)-6,6-difluoro-1-(isopropylamino)-1,2-dioxoheptan-3-yl)carbamoyl)-2-azaspiro[4.5]decan-2-yl)-3,3-dimethyl-1-oxobutan-2-yl)carbamate]	49 nM
COC(=O)N[C@H](C(=O)N1C2CCC(CC2)[C@H]1C(=O)N[C@@H](CCC(C)(F)F)C(=O)C(=O)NC1CC1)C(C)(C)C [Example 59, Methyl ((S)-1-((S)-3-(((S)-1-(cyclopropylamino)-6,6-difluoro-1,2-dioxoheptan-3-yl)carbamoyl)-2-azabicyclo[2.2.2]octan-2-yl)-3,3-dimethyl-1-oxobutan-2-yl)carbamate]	37 nM
CC(C)[C@H](NC(=O)OC(C)(C)C)C(=O)N1CC2(CCCCC2)C[C@H]1C(=O)N[C@@H](CCC(C)(F)F)C(=O)C(=O)NC1CC1 [Example 15, Tert-butyl ((S)-1-((S)-3-(((S)-1-(cyclopropylamino)-6,6-difluoro-1,2-dioxoheptan-3-yl)carbamoyl)-2-azaspiro[4.5]decan-2-yl)-3-methyl-1-oxobutan-2-yl)carbamate]	113 nM
CNC(=O)C(=O)[C@H](CCC(C)(F)F)NC(=O)[C@@H]1[C@@H]2[C@H](CN1C(=O)[C@@H](NC(=O)OC)C(C)(C)C)C2(C)C [Example 39, Methyl ((S)-1-((1R,2S,5S)-2-(((S)-6,6-difluoro-1-(methylamino)-1,2-dioxoheptan-3-yl)carbamoyl)-6,6-dimethyl-3-azabicyclo[3.1.0]hexan-3-yl)-3,3-dimethyl-1-oxobutan-2-yl)carbamate]	12 nM
COC(=O)N[C@H](C(=O)N1C[C@H]2[C@@H](C1C(=O)N[C@@H](CCC(C)(F)F)C(=O)C(=O)NC1CC1)C2(Cl)Cl)C(C)(C)C (single isomer, unassigned) [Example 106, methyl ((S)-1-((1S,2(S or R),5R)-6,6-dichloro-2-(((S)-1-(cyclopropylamino)-6,6-difluoro-1,2-dioxoheptan-3-yl)carbamoyl)-3-azabicyclo[3.1.0]hexan-3-yl)-3,3-dimethyl-1-oxobutan-2-yl)carbamate]	8 nM
CNC(=O)C(=O)[C@H](CCC(C)(F)F)NC(=O)C1C(C2CC2C)CCN1C(=O)[C@@H](NC(=O)OC)C(C)(C)C (single isomer, unassigned) [Example 107, methyl ((S)-1-((2(S or R),3(S or R))-2-(((S)-6,6-difluoro-1-(methylamino)-1,2-dioxoheptan-3-yl)carbamoyl)-3-((1(S or R),2(R or S))-2-methylcyclopropyl)pyrrolidin-1-yl)-3,3-dimethyl-1-oxobutan-2-yl)carbamate]	14 nM
CC(C)OC(=O)N[C@H](C(=O)N1CC2(CCCCC2)C[C@H]1C(=O)N[C@@H](CCC(C)(F)F)C(=O)C(=O)NC1CC1)C(C)(C)C [Example 4, Isopropyl ((S)-1-((S)-3-(((S)-1-(cyclopropylamino)-6,6-difluoro-1,2-dioxoheptan-3-yl)carbamoyl)-2-azaspiro[4.5]decan-2-yl)-3,3-dimethyl-1-oxobutan-2-yl)carbamate]	60 nM
COC(=O)N[C@H](C(=O)N1CCC(C(F)F)CC1C(=O)N[C@@H](CCC(C)(F)F)C(=O)C(=O)NC1CC1)C(C)(C)C (single isomer, unassigned) [Example 108, methyl ((S)-1-((2(S or R),4(R or S)-2-(((S)-1-(cyclopropylamino)-6,6-difluoro-1,2-dioxoheptan-3-yl)carbamoyl)-4-(difluoromethyl)piperidin-1-yl)-3,3-dimethyl-1-oxobutan-2-yl)carbamate]	22 nM
COC(=O)N[C@H](C(=O)N1CCC(F)(F)CC1C(=O)N[C@@H](CCC(C)(F)F)C(=O)C(=O)NC1CC1)C(C)(C)C (single isomer, unassigned) [Example 45, Methyl ((S)-1-(R or S)-(2-(((S)-1-(cyclopropylamino)-6,6-difluoro-1,2-dioxoheptan-3-yl)carbamoyl)-4,4-difluoropiperidin-1-yl)-3,3-dimethyl-1-oxobutan-2-yl)carbamate]	34 nM
COC(=O)N[C@H](C(=O)N1CC(F)(F)CC[C@H]1C(=O)N[C@@H](CCC(C)(F)F)C(=O)C(=O)NC1CC1)C(C)(C)C [Example 104, methyl ((S)-1-((S)-2-(((S)-1-(cyclopropylamino)-6,6-difluoro-1,2-dioxoheptan-3-yl)carbamoyl)-5,5-difluoropiperidin-1-yl)-3,3-dimethyl-1-oxobutan-2-yl)carbamate]	740 nM
COC(=O)N[C@@H](Cc1ccccc1)C(=O)N1CC[C@@H](C(F)(F)F)C[C@H]1C(=O)N[C@@H](CCC(C)(F)F)C(=O)C(=O)NC1CC1 [Example 68, Methyl ((S)-1-((2S,4R)-2-(((S)-1-(cyclopropylamino)-6,6-difluoro-1,2-dioxoheptan-3-yl)carbamoyl)-4-(trifluoromethyl)piperidin-1-yl)-1-oxo-3-phenylpropan-2-yl)carbamate]	28 nM
